Reference: US20150072933A1, “NOVEL SEQUENCES FOR THE CONTROL OF REPRODUCTION IN FISH” (Yissum Research Development Company of the Hebrew …, priority 2011, published 2015)
Entries after “also recorded” stand apart in the source; their conditions may differ. *1 amine or outer side, *2 acyl side, *3 side chain or, on linkers, in order; H or OH if unused. Where a SMILES comes first, the peptide text is derived from it. [ ]: non-standard residue; d: D form. Suc = O=C(CCC(=O)[*:2])[*:1]; NMeV = CN[C@H](C(=O)O)C(C)C

What was measured:
[1] = tested on: Mature female carp; experiment: Gonadotropin release from mature carp in vivo (LH by ELISA); details: mature female carp just before spawning, injected 20 μg/kg body weight; listed as NKBa analogue
Experimental: Mature female carp, just before spawning, were injected with NKBa, NKBb and NKF analogues, denoted by SEQ ID NO.44, SEQ ID NO.45 and SEQ ID NO.46, respectively (20 μg/kg body weight). LH levels was measured by specific ELISA, according to Aizen et al. 2012 [33].

[2] = tested on: zfTac3ra; experiment: Receptor transactivation assay, SRE-Luc reporter (PKC activation), COS-7 cells expressing zfTac3ra; assay type: cell-based, zebrafish; details: mean ± SEM
Experimental: (§1) In order to study the signaling pathways of the novel zebrafish NKBs, the entire coding regions of zftac3ra (denoted by SEQ ID NO:6) or zftac3rb (denoted by SEQ ID NO:7), or the cDNA clone for human NK3R (obtained from the Missouri S&T cDNA Resource Center, were inserted into pcDNA3.1 (Invitrogen). The luciferase assay was conducted according to Biran et al., 2008 [4] COS-7 cells were grown in DMEM supplemented with 10% FBS, 1% glutamine, 100 U/ml penicillin, and […] streptomycin (Biological Industries) under 5% CO2 until confluent. Cotransfection of either pc-zftac3ra, pc-zftac3rb or pc-Htac3r (at 3 μg/plate), a reporter plasmid (at 2 μg/plate), and pCMV-β-galactosidase (at 1 μg/plate) was carried out with FuGENE 6.0 reagent (Roche). The cells were serum starved for 36 h, stimulated with vehicle or various concentrations of either human (Sigma) or zebrafish NKBs for 6 h, and then harvested and analyzed. Lysates prepared from the harvested cells were assayed for both luciferase activity and β-galactosidase activity, which was used as an internal standard to normalize the luciferase activity directed by the test plasmid. Transfection experiments were performed in triplicate with three independently isolated sets. Protein structure prediction of zebrafish NKBa, NKBb or NKF were performed on I-Tasser servers.
(§2) The response, binding selectivity and signal transduction pathways of the novel tachykinin receptors to their agonists were evaluated by functional expression analysis, using COS-7 cells.
(§3) The NKB analogues (i.e. the NKBa-analog, NKBb-analog and NKF-analog, as denoted by SEQ ID NO. 44-46) were first analyzed in comparison to their native forms in a transactivation assay, using reporter genes for specific signal transduction pathways. To validate the specificity of the serum-responsive element (SRE)-Luc and cAMP-responsive element (CRE)-Luc reporter systems, specific activators for PLC/PKC and AC/PKA signaling pathways were used in control experiments.
(§4) Thus, the ability of the three novel piscine peptides (namely, NKBa, NKBb and NKF, denoted by SEQ ID NO.40, 41 and 42), as well as the ability of the three analogous agonistic peptides, namely, NKBa-analog, NKBb-analog and NKF-analog, to differentially activate the different tac3 receptors, using SRE as a reporter gene that follows PKC activation and CRE as a reporter gene for the PKA pathway, was tested. Human NK3R (human NKB receptor) and human NKB served as controls.

[3] = tested on: Juvenile Tilapia; experiment: Gonadotropin release in vivo from juvenile tilapia (plasma LH and FSH by ELISA); parameters: species or system Tilapia (Oreochromis niloticus); details: Juvenile Tilapia, injected at 0.5 or 5 μg/Kg BW
Experimental: Tilapia females (two-months old) were injected with the NKBa analogue denoted by SEQ ID NO.44 or the NKF analogue denoted by SEQ ID NO.46 at 0.5 or 5 μg/kg body weight (BW). Blood was withdrawn from the caudal vein and plasma Luteinizing hormone (LH) and Follicle-stimulating hormone (FSH) levels were measured using a homologous sensitive enzyme-linked immunosorbent assay (ELISA), as described by Aizen et al. 2007 [33].

[4] = tested on: Tilapia pituitary cells; experiment: Gonadotropin release from tilapia pituitary dispersed cells; assay type: cell-based; details: 10 nM, 4 hr
Experimental: Tilapia pituitary cells were subjected to enzymatic dispersion. Pituitary cells were stimulated with 10 nM of the NKBa or NKF analogue, denoted by SEQ ID NO.44 and SEQ ID NO.46, respectively, for 4 hr, when the medium was collected. […] Stimulation of tilapia pituitary cells with GnRH at [10 nM] was used as a control.

[5] = tested on: zfTac3rb; experiment: Receptor transactivation assay, SRE-Luc reporter (PKC activation), COS-7 cells expressing zfTac3rb; assay type: cell-based, zebrafish; details: mean ± SEM
Experimental: as §1, §2, §3, §4

[6] = tested on: zfTac3ra; experiment: Receptor transactivation assay, CRE-Luc reporter (PKA activation), COS-7 cells expressing zfTac3ra; assay type: cell-based, zebrafish; details: mean ± SEM
Experimental: as §1, §2, §3, §4

[7] = tested on: zfTac3rb; experiment: Receptor transactivation assay, CRE-Luc reporter (PKA activation), COS-7 cells expressing zfTac3rb; assay type: cell-based, zebrafish; details: mean ± SEM
Experimental: as §1, §2, §3, §4

[8] = tested on: NKB receptors (human NKBR, zebrafish Tac3ra, Tac3rb); experiment: Receptor transactivation assay, statements in words across SRE-Luc and CRE-Luc reporters and receptors; assay type: cell-based
Experimental: as §1, §2, §4

[9] = molecular target: T1, NKB receptors (human NKBR, zebrafish Tac3ra, Tac3rb) (Homo sapiens, UniProt P29371); experiment: as above; assay type: cell-based; details: human NKBR (huNK3R), in both signal transduction systems (SRE-Luc and CRE-Luc)
T1 construct: expressed in transfected cells; host or cells: COS-7
T1 sequence (P29371 1-465): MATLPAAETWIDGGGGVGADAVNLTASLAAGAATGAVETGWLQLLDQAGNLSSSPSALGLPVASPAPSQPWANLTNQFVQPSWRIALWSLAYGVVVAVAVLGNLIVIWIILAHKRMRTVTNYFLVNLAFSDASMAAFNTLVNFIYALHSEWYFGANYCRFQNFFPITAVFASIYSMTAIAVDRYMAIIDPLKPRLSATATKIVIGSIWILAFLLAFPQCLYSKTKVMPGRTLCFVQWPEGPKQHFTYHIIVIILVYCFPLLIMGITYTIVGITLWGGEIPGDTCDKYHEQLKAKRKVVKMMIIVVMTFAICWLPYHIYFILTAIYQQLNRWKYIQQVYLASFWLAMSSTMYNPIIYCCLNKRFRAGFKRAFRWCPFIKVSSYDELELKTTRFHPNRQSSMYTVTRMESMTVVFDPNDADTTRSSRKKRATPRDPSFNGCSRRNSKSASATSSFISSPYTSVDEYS
Experimental: as §1, §2, §4

[10] = tested on: sexually mature female zebrafish; experiment: In vivo effect of NKBs in zebrafish: LH secretion after intraperitoneal injection; details: single intraperitoneal injection; for LH secretion: 20 pmol/g body weight, sexually mature female zebrafish
Experimental: In vivo studies involved administering NKBa, NKBb or NKF and the analogues thereof, denoted by SEQ ID NO. 40-42 and 44-46, respectively to immature fish (20 fish/treatment). The circulating levels of E2, 11KT, LH and FSH were determined prior to hormonal manipulations, in order to confirm that these fish were indeed sexually immature. The fish were injected intramuscularly (i.m.) or intraperitonealy (i.p.) at various doses. Adult female zebra fish were injected intraperitoneally with 20 pmol/g body weight. Control fish were injected with saline. Plasma samples were collected at time 0, and specific times after the administration of the peptide/s, to determine the levels of E2, 11KT, LH and FSH.
To further characterize the role of the NKB/NKBR system in fish reproduction the in vivo biological function of zebrafish NKB peptides was next examined.

[11] = molecular target: T2, huNK3R (Homo sapiens, UniProt P29371); experiment: Receptor transactivation assay, SRE-Luc reporter (PKC activation), COS-7 cells expressing human NK3R; assay type: cell-based; details: for SRE-driven luciferase activity, response: COS-7 cells transiently transfected with human NK3R; for EC50: Table 5, COS-7 cells, SRE-Luc follows PKC activation, mean ± SEM
T2 construct: host or cells: COS-7
T2 sequence (P29371 1-465): T1 sequence (P29371 1-465)
Experimental: In order to study the signaling pathways of the novel zebrafish NKBs, the entire coding regions of zftac3ra (denoted by SEQ ID NO:6) or zftac3rb (denoted by SEQ ID NO:7), or the cDNA clone for human NK3R (obtained from the Missouri S&T cDNA Resource Center, were inserted into pcDNA3.1 (Invitrogen). The luciferase assay was conducted according to Biran et al., 2008 [4] COS-7 cells were grown in DMEM supplemented with 10% FBS, 1% glutamine, 100 U/ml penicillin, and 100 mg/ml streptomycin (Biological Industries) under 5% CO2 until confluent. Cotransfection of either pc-zftac3ra, pc-zftac3rb or pc-Htac3r (at 3 μg/plate), a reporter plasmid (at 2 μg/plate), and pCMV-β-galactosidase (at 1 μg/plate) was carried out with FuGENE 6.0 reagent (Roche). The cells were serum starved for 36 h, stimulated with vehicle or various concentrations of either human (Sigma) or zebrafish NKBs for 6 h, and then harvested and analyzed. Lysates prepared from the harvested cells were assayed for both luciferase activity and β-galactosidase activity, which was used as an internal standard to normalize the luciferase activity directed by the test plasmid. Transfection experiments were performed in triplicate with three independently isolated sets.

[12] = Table 7 (native peptides and analogues), PKC activation, read-out: EC50 using SRE, zfTac3ra
[13] = Table 7 (native peptides and analogues), PKC activation, read-out: EC50 using SRE, zfTac3rb
[14] = Table 6 (native peptides and analogues), PKA activation, read-out: EC50 using CRE-Luc, zfTac3ra
[15] = Table 6 (native peptides and analogues), PKA activation, read-out: EC50 using CRE-Luc, zfTac3rb
[16] = Table 5, COS-7 cells, SRE-Luc follows PKC activation, read-out: EC50 SRE-Luc zfTac3ra
[17] = Table 5, COS-7 cells, SRE-Luc follows PKC activation, read-out: EC50 SRE-Luc zfTac3rb
[18] = Table 5, COS-7 cells, CRE-Luc follows PKA activation, read-out: EC50 CRE-Luc zfTac3ra
[19] = Table 5, COS-7 cells, CRE-Luc follows PKA activation, read-out: EC50 CRE-Luc zfTac3rb

SMILES: CC[C@H](C)[C@H](NC(=O)[C@H](CC(=O)O)NC(=O)CCC(=O)O)C(=O)N[C@@H](Cc1ccccc1)C(=O)N(C)[C@H](C(=O)NCC(=O)N[C@@H](CC(C)C)C(=O)N[C@@H](CCSC)C(N)=O)C(C)C [zfNKBa-analog, Succ-Asp-Ile-Phe-N(Me)Val-Gly-Leu-Met-NH2] (Suc-DIF[NMeV]GLM-NH2)
- LH level [1]: significant elevation; also recorded: increased the level of LH significantly
- EC50 [2, 12]: 0.15 ± 0.19 nM
- FSH secretion [3]: significant increase
- LH secretion [3]: significant increase
- release of FSH from tilapia pituitary cells [4]: significantly increased
- EC50 [5, 13]: 0.29 nM
- EC50 [6, 14]: 6.94 ± 1.28 nM
- EC50 ([7]; Table 6 (native peptides and analogues), PKA activation, listed as NKBa-analog, read-out: EC50 using CRE-Luc, zfTac3rb): 11.9 nM
- EC50 [7, 15]: 11.9 ± 16.9 nM

SMILES: CC[C@H](C)[C@H](NC(=O)[C@H](CC(=O)O)NC(=O)[C@H](Cc1c[nH]cn1)NC(=O)[C@H](CCSC)NC(=O)[C@@H](N)CCC(=O)O)C(=O)N[C@@H](Cc1ccccc1)C(=O)N[C@H](C(=O)NCC(=O)N[C@@H](CC(C)C)C(=O)N[C@@H](CCSC)C(N)=O)C(C)C [zfNKBa] (H-EMHDIFVGLM-NH2)
- EC50 [2, 16]: 0.5 ± 0.17 nM
- EC50 [2, 12]: 0.62 ± 0.22 nM
- potency ([8]; both zebrafish tac3 receptors, in both signal transduction systems): most potent among all tachykinins examined
- effectiveness in the transactivation assay ([8]; native peptides versus analogues, Example 12): most effective peptide
- potency [9]: high potency
- LH secretion [10]: significant increase; also recorded: significant LH secretion
- magnitude of the induced LH discharge ([10]; compared with GnRH): comparable with that observed in response to GnRH
- EC50 [5, 17]: 1.47 ± 1.66 nM
- EC50 [5, 13]: 26.1 nM
- EC50 [6, 18]: 5.75 ± 1.45 nM
- EC50 [6, 14]: 4.75 ± 1.48 nM
- EC50 [7, 19]: 4.55 ± 1.57 nM
- EC50 ([7]; Table 6 (native peptides and analogues), PKA activation, listed as NKBa, read-out: EC50 using CRE-Luc, zfTac3rb): 16 nM
- EC50 [7, 15]: 16.4 ± 12 nM
- SRE-driven luciferase activity, response [11]: elicited an increased response
- EC50 [11]: 0.49 ± 0.18 nM

SMILES: CC[C@H](C)[C@H](NC(=O)CNC(=O)[C@@H](NC(=O)[C@@H](N)CO)[C@@H](C)O)C(=O)N[C@@H](CC(N)=O)C(=O)N[C@@H](CCCNC(=N)N)C(=O)N[C@@H](CCC(=O)O)C(=O)N[C@@H](C)C(=O)N[C@@H](Cc1c[nH]cn1)C(=O)N[C@@H](CC(C)C)C(=O)N1CCC[C@H]1C(=O)N[C@@H](Cc1ccccc1)C(=O)N[C@@H](CCCNC(=N)N)C(=O)N1CCC[C@H]1C(=O)N[C@@H](CC(N)=O)C(=O)N[C@@H](CCSC)C(=O)N[C@@H](CC(N)=O)C(=O)N[C@@H](CC(=O)O)C(=O)N[C@H](C(=O)N[C@@H](Cc1ccccc1)C(=O)N[C@H](C(=O)NCC(=O)N[C@@H](CC(C)C)C(=O)N[C@@H](CC(C)C)C(N)=O)C(C)C)[C@@H](C)CC [zfNKBb] (H-STGINREAHLPFRPNMNDIFVGLL-NH2; N-terminus assumed)
- EC50 [2, 16]: 8.96 ± 1.19 nM
- EC50 [2, 12]: 6.06 nM
- luciferase activity ([8]; both SRE-Luc and CRE-Luc, both signal transduction pathways): less effective than the other forms
- activation of the piscine NKB receptors ([8]; zebrafish tac3ra and tac3rb, FIGS. 11A, B, D, E): lowest effect
- potency [9]: relatively low potency
- LH secretion [10]: significant increase; also recorded: less pronounced
- EC50 [5, 17]: 33.8 ± 14.7 nM
- EC50 ([5]; Table 7 (native peptides and analogues), PKC activation, listed as NKBb, read-out: EC50 using SRE, zfTac3rb): 15.3 nM
- EC50 [5, 13]: 15.3 ± 18.3 nM
- EC50 [6, 18]: 237 ± 134 nM
- EC50 ([6]; Table 6 (native peptides and analogues), PKA activation, listed as NKBb, read-out: EC50 using CRE-Luc, zfTac3ra): 99.6 nM
- EC50 [6, 14]: 99.6 ± 12.9 nM
- EC50 [7, 19]: 519 ± 160 nM
- EC50 [7, 15]: 191 nM
- SRE-driven luciferase activity, response [11]: lowest effect
- EC50 [11]: 204 ± 139 nM
